19 molecules from ChEMBL document CHEMBL4334443, “Characterization of Covalent Pyrazolopyrimidine-MKK7 Complexes and a Report on a Unique DFG-in/Leu-in Conformation of Mitogen-Activated Protein Kinase Kinase 7 (MKK7)” (J Med Chem, 2019) can be followed below.

What is called IC50 is the concentration that inhibits the measured activity by half. A high value points to lower potency.

This assay is described as follows: Inhibition of MKK7 beta1 S273D/T275D double mutant (unknown origin) using JNK1 K55M mutant as substrate by ADP-Glo assay. The arrangement: species or system Homo sapiens. For orientation: In ADP-Glo the light output rises with the ADP produced.
`C=CC(=O)N1CCC[C@@H](n2nc(-c3ccc(C(F)(F)F)cc3)c3c(N)ncnc32)C1` displayed an IC50 of 666 nM. This counts as sub-micromolar. For `C=CC(=O)N1CCC[C@@H](n2nc(-c3cccc(C(F)(F)F)c3)c3c(N)ncnc32)C1`, half-maximal inhibition (IC50) was put at 159 nM. Next, `C=CC(=O)N1CCC[C@@H](n2nc(-c3ccc(F)cc3)c3c(N)ncnc32)C1`: 154 nM; `C=CC(=O)N1CCC[C@@H](n2nc(-c3ccc(O)cc3)c3c(N)ncnc32)C1`: 8.6 nM; `CCC(=O)N1CCC[C@@H](n2nc(-c3ccccc3)c3c(N)ncnc32)C1`: more than 10000 nM. Next, `C=CC(=O)N1CCC[C@@H](n2nc(C#CC3CCCC3)c3c(N)ncnc32)C1`: 1570 nM; `CCC(=O)N1CCC[C@@H](n2nc(-c3cccc(C(F)(F)F)c3)c3c(N)ncnc32)C1`: more than 10000 nM. The molecule `C=CC(=O)N1CCC[C@@H](n2nc(-c3ccc4ccccc4c3)c3c(N)ncnc32)C1` registered a half-maximal inhibitory concentration (IC50) of 113 nM. That is a sub-micromolar value. Next, `C=CC(=O)N1CCC[C@@H](n2ncc3c(N)ncnc32)C1`: 631 nM; `C=CC(=O)N1CCC[C@@H](n2nc(-c3cn(C)c4ccccc34)c3c(N)ncnc32)C1`: 302 nM; `C=CC(=O)N1CCC[C@@H](n2nc(-c3cccc4ccccc34)c3c(N)ncnc32)C1`: 149 nM.

`C=CC(=O)N1CCC[C@@H](n2nc(C3CC3)c3c(N)ncnc32)C1` returned an IC50 of 307 nM. Next, `C=CC(=O)N1CCC[C@@H](n2nc(-c3ccccc3)c3c(N)ncnc32)C1`: 413 nM; `CN(C)C/C=C/C(=O)N1CCC[C@@H](n2nc(-c3cccc(C(F)(F)F)c3)c3c(N)ncnc32)C1`: 2610 nM; `CCC(=O)N1CCC[C@@H](n2nc(-c3ccc(F)cc3)c3c(N)ncnc32)C1`: more than 10000 nM.

`C=CC(=O)N1CCC[C@@H](n2nc(-c3cnc4[nH]ccc4c3)c3c(N)ncnc32)C1` showed a half-inhibitory concentration (IC50) of 19 nM. Next, `N#C/C(=C\C1CC1)C(=O)N1CCC[C@@H](n2nc(-c3cnc4[nH]ccc4c3)c3c(N)ncnc32)C1`: more than 10000 nM; `N#C/C(=C\C1CC1)C(=O)N1CCC[C@@H](n2nc(-c3cccc(C(F)(F)F)c3)c3c(N)ncnc32)C1`: more than 10000 nM. Next, `C=CC(=O)N1CCC[C@@H](n2nc(-c3ccc(Oc4ccccc4)cc3)c3c(N)ncnc32)C1` [IBRUTINIB]: 78 nM.
